Where two headings read alike, the source gives them in different places.

We go through 18 molecules from patent US20070059769A1, “High throughput glycan microarrays” (priority 2004, published 2007).

One experiment deals with 2G12. As to the kind of experiment: glycan array binding of anti-HIV 2G12 monoclonal antibody. Further details: species or system human.
Experiment [1] has as its system serum antibodies of xenotransplant recipients. As to the kind of experiment: glycan array binding of antibodies in sera of recipients of porcine fetal pancreas islet-like cell clusters. Further details: species or system human. Particulars: before and 1, 6, 12 months after transplantation. As for the experimental part:
In 1991-1994, several diabetic (I) patients received transplantation of porcine fetal pancreas islet-like cell clusters (ICC). See, Groth, C. G. et al. Transplantation of porcine fetal pancreas to diabetic patients, The Lancet 344: 1402-4 (1994). The inventor analyzed serum from three of these patients before transplant (t=0), 1 months after (t=1), 6 months after (t=2) and 12 months after (t=3) transplant.
(§1) Sera were diluted as needed with PBS containing 3% BSA, and placed on the glycan array slide in humidified chamber at room temperature for 90 min. The glycan array slide was then rinsed gently with PBS/0.05% Tween, incubated with biotinylated goat antibody against human IgG, IgM and IgA, rinsed in PBS/0.05% Tween, and incubated with streptavidin-Alexa488 fluorescent dye. Following rinses in PBS/0.05% Tween and H2O, glycan array slides were dried and scanned using the commercial DNA array scanner. […] Signal to background was typically greater 50:1 and no background subtractions were performed. Data were plotted using MS Excel software.

In another experiment the test system is β3GlcNAcT. As to the kind of experiment: β3GlcNAcT acceptor specificity. Particulars: acceptor substrate; lactose (4) = 100%.
The next experiment concerns the target T1, chST6GalNAc-I (Gallus gallus, UniProt Q92183).
T1 construct: made in house; host or cells: insect cells
Nature of the experiment: chST6GalNAc-I activity on small acceptor molecules. It is filed as biochemical, chicken. Particulars: α-D-galacto derivative as acceptor. From the text: The inventors have previously reported the cloning, expression, and characterization of chicken ST6GalNAc-I and its use in preparative synthesis of the O-linked sialoside antigens, STn-, α(2-6)SiaT-, α(2-3)SiaT- and Di-SiaT-antigen. Blixt, O.; Allin, K.; Pereira, L.; Datta, A. and Paulson, J. C., J. Am. Chem. Soc. 2002, 124, 5739-5746. Briefly, the recombinant enzyme was expressed in insect cells and purified by CDP-sepharose affinity chromatography to generate approximately 10 U/L of cell culture.

In experiment [2] the test system is anti-carbohydrate antibodies in sera of metastatic breast cancer patients. As to the kind of experiment: glycan array binding of antibodies in sera of metastatic breast cancer patients. The arrangement: species or system human. Particulars: sera diluted 1:25. The method, then: Individual (not pooled) sera were collected from 9 patients who were diagnosed with metastatic breast cancer (MBC). Blood samples were collected before treatment, so that therapeutic intervention would not interfere with patient immune responses. One patient with breast cancer but with good prognosis (IDC, Stage 1) was also included in the study. As control, or “healthy” sera, sera from ten healthy individuals, 5 female and 5 male, with no known malignancies was collected.
as §1, with “1:25” for “as needed”

The target in the next experiment is Concanavalin A (Canavalia ensiformis, UniProt P02866). The following applies: printing times up to 5 hours.

T1 sequence (Q92183 whole entry): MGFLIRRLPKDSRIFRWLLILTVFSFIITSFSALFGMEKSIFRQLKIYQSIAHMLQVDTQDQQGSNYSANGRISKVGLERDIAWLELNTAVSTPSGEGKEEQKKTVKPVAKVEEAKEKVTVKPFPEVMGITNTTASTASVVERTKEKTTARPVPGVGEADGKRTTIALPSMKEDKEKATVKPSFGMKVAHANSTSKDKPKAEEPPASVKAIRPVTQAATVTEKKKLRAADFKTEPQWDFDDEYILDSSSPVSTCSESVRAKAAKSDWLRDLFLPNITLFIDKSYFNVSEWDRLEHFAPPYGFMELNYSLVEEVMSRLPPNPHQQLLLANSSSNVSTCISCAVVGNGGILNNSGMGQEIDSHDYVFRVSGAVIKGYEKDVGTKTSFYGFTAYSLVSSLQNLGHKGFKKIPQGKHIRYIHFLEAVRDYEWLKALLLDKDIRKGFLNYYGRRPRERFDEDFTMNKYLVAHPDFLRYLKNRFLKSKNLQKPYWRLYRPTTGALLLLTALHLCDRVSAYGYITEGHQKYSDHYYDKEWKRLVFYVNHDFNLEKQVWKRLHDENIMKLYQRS
Procedure for Concanavalin A: Glycan Binding Protein binding assay. Printed slides were analyzed without any further modification of the surface. […] GBP's were added at a concentration of 5-50 μg/mL in buffer (usually PBS containing 0.005-0.5% Tween-20). […] Slides were subsequently washed by successive rinses in (i) PBS-Tween (0.05%), (ii) PBS and (iii) de-ionized water, then immediately subjected to imaging.
Image acquisition and signal processing. Fluorescence intensities were detected using a ScanArray 5000 (Perkin Elmer, Boston, Mass.) confocal scanner and image analyses were carried out using ImaGene image analysis software (BioDiscovery Inc, El Segundo, Calif.). Signal to background was typically greater than 50:1 and no background subtractions were performed.
Binding of fluorescein-labeled concanavalin A (con A) was used as a measure of ligand coupling.
Procedure for β3GlcNAcT: Both enzymes, β4GalT-GalE and β3GlcNAcT, were over expressed in E. coli AD202 in a large-scale fermentor (100 L). Bacteria were cultured in 2YT medium and induced with iso-propyl-thiogalactopyranoside (IPTG) to ultimately produce 8-10 g of bacterial cell paste/L cell media. The enzymes were then released from the cells by a microfluidizer and were solubilized in Tris buffer (25 mM, pH 7.5) containing manganese chloride (10 mM) and Triton X (0.25%) to reach enzymatic activities of about 50 U/L and 115 U/L of cell culture β4GalT-GalE and β3GlcNAcT, respectively.

On to “Manα1-6(Manα1-2Manα1-3)Manα1-6(Manα1-2Manα1-3)Manβ1-4GlcNAcβ1-4GlcNAcβSp [Glycan 143]”, for which the “binding of 2G12” value in the experiment on 2G12 is “did not support binding at all”. On to Galβ1-4(Fucα1-3)GlcNAcβSp [Glycan 65], for which the “reactivity of serum antibodies of xenotransplant recipients” value in experiment [1] is given as “do not have antibodies”.

As to “Manα1-6(Manα1-3)Manα1-6(Manα1-2Manα1-3)Manβ1-4GlcNAcβ1-4GlcNAcβSp [Glycan 142]”, in the experiment on 2G12, the “binding of 2G12” value was “did not support binding at all”. As to `OCC1O[C@@H](O)C(O)[C@@H](O)[C@@H]1O[C@@H]1OC(CO)[C@H](O)[C@H](O)C1O` (stereo partly shown) [Acceptor 4, Galβ(1-4)Glc], in the experiment on β3GlcNAcT, the “Relative enzyme activity (%) β(1-3)GlcNAcT-activity” value worked out at 100%. Take `CC(=O)N[C@H]1C(O)O[C@H](CO)[C@H](O)[C@@H]1O` (stereo partly drawn) [D-GalNAc]: at chST6GalNAc-I, the “chST6GalNAc-I activity, cpm” value was 0 cpm and the “chST6GalNAc-I activity, nmol/mg × min^−1” value was 0.00 nmol/mg × min^−1. Regarding “Manα1-3Manα1-6(Manα1-2Manα1-3)Manβ1-4GlcNAcβ1-4GlcNAcβSp [Glycan 140]”, in the experiment with 2G12, the “binding of 2G12” value was “did not support binding at all”. For “Fucose-alpha2-Gal-beta3-GalNAc-beta3-Gal-alpha4-Gal-beta4-Glc [Globo-H]”, the “binding by / level of serum antibodies in metastatic breast cancer patients versus healthy individuals” value in experiment [2] is “bind and higher than in the healthy individuals”. For the molecule Neu5Acα2-6GalNAcα-, the “binding by / level of serum antibodies in metastatic breast cancer patients versus healthy individuals” value in experiment [2] is “significantly higher levels”. Neu5Gc(2-6)GalNAc: the “binding by / level of serum antibodies in metastatic breast cancer patients versus healthy individuals” value in experiment [2] was “bind”. Take `CC(=O)N[C@H]1[C@H](O[C@H]2[C@@H](O)[C@@H](CO)O[C@@H](O[C@H]3[C@H](O)[C@@H](O)C(O)O[C@@H]3CO)[C@@H]2O)O[C@H](CO)[C@@H](O)[C@@H]1O` (stereo partly drawn) [LNT-2, GlcNAc-beta3-Gal-beta4-Glc-beta]: the “binding by / level of serum antibodies in metastatic breast cancer patients versus healthy individuals” value in experiment [2] is “bind and higher than in the healthy individuals”. For “Manα1-2Manα1-3(Manα1-2Manα1-6)ManαSp [Glycan 136]”, on Concanavalin A, the “variation in maximal binding of con A” value is “less than 10%”. Also, in the experiment with 2G12, the “binding of 2G12” value is “strong binding”. The “Rel. spec. (relative binding activity of 2G12)” value in the experiment on 2G12 (2G12 30 μg/mL pre-complexed with goat anti-human-IgG-FITC) is on record as “+++ (+++ >25,000)”. Consider Galβ(1-4)GlcNAc [Acceptor 6], for which the “Relative enzyme activity (%) β(1-3)GlcNAcT-activity” value in the experiment with β3GlcNAcT is on record as 7-8%. Consider “Manα1-2Manα1-6(Manα1-3)Manα1-6(Manα1-2Manα1-3)Manβ1-4GlcNAcβ1-4GlcNAcβSp [Glycan 144]”, for which the “binding of 2G12” value with 2G12 is recorded as “strong preference”.

Turning to “Galα1-3Galβ1-4(Fucα1-3)GlcNAcβSp [Glycan 34]”, in experiment [1], the “reactivity of serum antibodies of xenotransplant recipients” value is on record as “clearly exhibit an immune response”.

For `O=[N+]([O-])c1ccc(O[C@@H]2OC(CO)[C@@H](O[C@@H]3OC(CO)[C@H](O)[C@H](O)C3O)[C@H](O)C2O)cc1` (stereo partly shown) [Compound 5], in the experiment on β3GlcNAcT, the “Relative enzyme activity (%) β(1-3)GlcNAcT-activity” value came out at 945%.

Regarding “Gal-beta3-GalNAc-beta4-[Neu5Ac-alpha3]-Gal-beta4-Glc-beta [GM1]”, in experiment [2], the “binding by / level of serum antibodies in metastatic breast cancer patients versus healthy individuals” value is “bind and higher than in the healthy individuals”. Consider “Manα1-2Manα1-2Manα1-3(Manα1-2Manα1-3(Manα1-2Manα1-6)Manα1-6)Manβ1-4GlcNAcβ1-4GlcNAcβSp [Glycan 145]”, for which the “binding of 2G12” value in the experiment on 2G12 (listed as Man9) is recorded as “relatively weakly bound”; in the experiment on 2G12 (listed as Man-9-N-glycans) it was “smaller level of binding”.

B1: Ceruloplasmine (protein, UniProt P00450 20-1065, looked up)
Ceruloplasmin: KEKHYYIGIIETTWDYASDHGEKKLISVDTEHSNIYLQNGPDRIGRLYKKALYLQYTDETFRTTIEKPVWLGFLGPIIKAETGDKVYVHLKNLASRPYTFHSHGITYYKEHEGAIYPDNTTDFQRADDKVYPGEQYTYMLLATEEQSPGEGDGNCVTRIYHSHIDAPKDIASGLIGPLIICKKDSLDKEKEKHIDREFVVMFSVVDENFSWYLEDNIKTYCSEPEKVDKDNEDFQESNRMYSVNGYTFGSLPGLSMCAEDRVKWYLFGMGNEVDVHAAFFHGQALTNKNYRIDTINLFPATLFDAYMVAQNPGEWMLSCQNLNHLKAGLQAFFQVQECNKSSSKDNIRGKHVRHYYIAAEEIIWNYAPSGIDIFTKENLTAPGSDSAVFFEQGTTRIGGSYKKLVYREYTDASFTNRKERGPEEEHLGILGPVIWAEVGDTIRVTFHNKGAYPLSIEPIGVRFNKNNEGTYYSPNYNPQSRSVPPSASHVAPTETFTYEWTVPKEVGPTNADPVCLAKMYYSAVEPTKDIFTGLIGPMKICKKGSLHANGRQKDVDKEFYLFPTVFDENESLLLEDNIRMFTTAPDQVDKEDEDFQESNKMHSMNGFMYGNQPGLTMCKGDSVVWYLFSAGNEADVHGIYFSGNTYLWRGERRDTANLFPQTSLTLHMWPDTEGTFNVECLTTDHYTGGMKQKYTVNQCRRQSEDSTFYLGERTYYIAAVEVEWDYSPQREWEKELHHLQEQNVSNAFLDKGEFYIGSKYKKVVYRQYTDSTFRVPVERKAEEEHLGILGPQLHADVGDKVKIIFKNMATRPYSIHAHGVQTESSTVTPTLPGETLTYVWKIPERSGAGTEDSACIPWAYYSTVDQVKDLYSGLIGPLIVCRRPYLKVFNPRRKLEFALLFLVFDENESWYLDDNIKTYSDHPEKVNKDDEEFIESNKMHAINGRMFGNLQGLTMHVGDEVNWYLMGMGNEIDLHTVHFHGHSFQYKHRGVYSSDVFDIFPGTYQTLEMFPRTPGIWLLHCHVTDHIHAGMETTYTVLQNEDTKSG
modifications: N-glycans
notes: mixture of bi and tri- and tetra-antenary N-glycans
Turning to B1, in experiment [2], the “binding by / level of serum antibodies in metastatic breast cancer patients versus healthy individuals” value was “bind and significantly higher levels”.
